In ChEMBL document CHEMBL5252574, “α-Synuclein Aggregation Inhibitory Procerolides and Diphenylalkanes from the Ascidian Polycarpa procera” (J Nat Prod, 2023) one finds inhibition and Activity data, which are given here for 11 compounds.

Assay [1] concerns the target Alpha-synuclein (Homo sapiens) (UniProt P37840). In words: Inhibition of human alpha-syn expressed in Escherichia coli BL21 (DE3) cells aggregation incubated for 36 hrs by ThT dye based fluorescence assay.
In assay [2] the test system is Staphylococcus aureus. In words: Antibacterial activity against methicillin- resistant Staphylococcus aureus ATCC 43300 incubated for 18 hrs by microdilution method. It counts as functional, organism-based. For orientation: Dilution methods test growth across graded concentrations, often in twofold steps.
For assay [3], the system named is Pseudomonas aeruginosa. In words: Antibacterial activity against Pseudomonas aeruginosa ATCC 27853 incubated for 18 hrs by microdilution method. In kind it is functional, organism-based.
The subject of assay [4] is Staphylococcus aureus. Kind of assay: Antibacterial activity against methicillin-susceptible Staphylococcus aureus ATCC 25923 incubated for 18 hrs by microdilution method. In kind it is functional, organism-based.

Calls of active or inactive are those of the source. The calls are words filed in the database; no cut-off is given here.

For `CCOC(=O)C1(Cc2ccc(OC)cc2)OC(=O)C(O)=C1c1ccc(OC)cc1` (configuration not stated), the inhibition entry in assay [1] is “inactive”.
Take `CCOC(=O)C1(Cc2ccc(Cl)cc2)OC(=O)C(O)=C1c1ccc(Cl)cc1` (configuration not stated): the inhibition result in assay [1] is “inactive”.
`CCOC(=O)C1(Cc2cccc(OC)c2)OC(=O)C(O)=C1c1cccc(OC)c1` (configuration not stated): the inhibition entry in assay [1] is “inactive”.
On to `COC1=C(c2cc(Br)c(O)c(Br)c2)[C@H](Cc2ccc(OC)c(Br)c2)OC1=O`, for which the result in assay [2], in assay [3] and in assay [4] was inactive.
Turning to `CCOC(=O)C1(Cc2ccc(C)cc2)OC(=O)C(O)=C1c1ccc(C)cc1` (configuration not stated), in assay [1], the inhibition entry is “inactive”.
On the same count and under the same terms, the entry for `CCOC(=O)C1(Cc2ccccc2)OC(=O)C(O)=C1c1ccccc1` (configuration not stated) is “inactive”; for `CCOC(=O)C1(Cc2ccccc2)OC(=O)C(O)=C1c1ccc(OC)cc1` (configuration not stated) it is “inactive”.
In the case of `COC1=C(c2cc(Br)c(O)c(Br)c2)[C@H](Cc2cc(Br)c(OC)c(Br)c2)OC1=O`, the result in assay [2], in assay [3] and in assay [4] was inactive.
Regarding `CCCC(C)CC1(C(=O)OCC)OC(=O)C(O)=C1c1ccc(OC)cc1` (configuration not stated), in assay [1], the inhibition result is “inactive”.
As for `COc1ccc(C[C@H](O)C(=O)c2cc(Br)c(O)c(Br)c2)cc1Br`, the result in assay [2], in assay [3] and in assay [4] was inactive.
Turning to `CCOC(=O)C1(Cc2ccc(OC)cc2)OC(=O)C(O)=C1c1ccccc1` (configuration not stated), the inhibition entry in assay [1] is “inactive”.
